Test results as given in the supplement of paper PMC11061612.

Key:
Test in all cases: Bliss excess, mean over the matrix (fraction); higher = more synergy
A704 (Kidney Carcinoma) = tested on: A704 (Kidney Carcinoma)
How it was run: (§1)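 After 24 hours at 37°C and 5% CO2 in 1536-well plates, cells in DMEM/F12 or RPMI plus 10% FBS received two-drug dose matrices for 72 hours. Viability came from CellTiter-Glo 2.0 luminescence and was scaled as inhibition, anchored at 0 by vehicle wells and at 1 by blank wells. Combination Emax is taken as the second-highest inhibition in the matrix, and Bliss excess as the observed combination effect less EA + EB − EA·EB, with EA and EB the single-agent effects.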

BT-20 (Breast Carcinoma) = tested on: BT-20 (Breast Carcinoma)
How it was run: as §1

[1] = tested on: DG-75 (Burkitt's Lymphoma)
How it was run: as §1

[2] = tested on: EBC-1 (Squamous Cell Lung Carcinoma)
How it was run: as §1

EW-18 (Ewing's Sarcoma) = tested on: EW-18 (Ewing's Sarcoma)
How it was run: as §1

GOTO (Neuroblastoma) = tested on: GOTO (Neuroblastoma)
How it was run: as §1

IMR-5 (Neuroblastoma) = tested on: IMR-5 (Neuroblastoma)
How it was run: as §1

[3] = tested on: KP-2 (Pancreatic Carcinoma)
How it was run: as §1

[4] = tested on: KU-19-19 (Bladder Carcinoma)
How it was run: as §1

[5] = tested on: LOU-NH91 (Squamous Cell Lung Carcinoma)
How it was run: as §1

[6] = tested on: NCI-H2347 (Lung Adenocarcinoma)
How it was run: as §1

[7] = tested on: NCI-H322M (Lung Adenocarcinoma)
How it was run: as §1

[8] = tested on: OCUM-1 (Gastric Carcinoma)
How it was run: as §1

[9] = tested on: OVISE (Ovarian Carcinoma)
How it was run: as §1

RPMI-7951 (Melanoma) = tested on: RPMI-7951 (Melanoma)
How it was run: as §1

[10] = tested on: SCC-3 (B-Cell Non-Hodgkin's Lymphoma)
How it was run: as §1

[11] = tested on: SCC-9 (Oral Cavity Carcinoma)
How it was run: as §1

[12] = tested on: SNU-C1 (Colorectal Carcinoma)
How it was run: as §1

[13] = tested on: TGBC11TKB (Gastric Carcinoma)
How it was run: as §1

| SMILES | Bliss excess (A704 (Kidney Carcinoma)) | Bliss excess (BT-20 (Breast Carcinoma)) | Bliss excess [1] | Bliss excess [2] | Bliss excess (EW-18 (Ewing's Sarcoma)) | Bliss excess (GOTO (Neuroblastoma)) | Bliss excess (IMR-5 (Neuroblastoma)) | Bliss excess [3] | Bliss excess [4] | Bliss excess [5] | Bliss excess [6] | Bliss excess [7] | Bliss excess [8] | Bliss excess [9] | Bliss excess (RPMI-7951 (Melanoma)) | Bliss excess [10] | Bliss excess [11] | Bliss excess [12] | Bliss excess [13] |
| --- | --- | --- | --- | --- | --- | --- | --- | --- | --- | --- | --- | --- | --- | --- | --- | --- | --- | --- | --- |
| CN(C)CCCOc1ccc(-c2ccc3ncc4c(c3c2)n(C2CCOCC2)c(=O)n4C)cn1 [AZD0156] + C=CCn1c(=O)c2cnc(Nc3ccc(N4CCN(C)CC4)cc3)nc2n1-c1cccc(C(C)(C)O)n1 [AZD1775] (first compound max 1 µM, partner max 1 µM) | -0.0484 | -0.0937 | 0.0097 | -0.0603 | -0.0245 | 0.0051 | -0.0214 | -0.0331 | -0.0043 | -0.0349 | -0.0627 | -0.0027 | 0.0183 | -0.0374 | -0.0055 | -0.0162 | -0.036 | -0.0401 | -0.0482 |
| CN(C)CCCOc1ccc(-c2ccc3ncc4c(c3c2)n(C2CCOCC2)c(=O)n4C)cn1 [AZD0156] + CCN(CCO)CCCOc1ccc2c(Nc3cc(CC(=O)Nc4cccc(F)c4)[nH]n3)ncnc2c1 [AZD2811] (first compound max 1 µM, 7x7, partner max 1 µM) | -0.039 | -0.0276 | 0.057 | -0.0117 | -0.0219 | 0.129 | -0.0257 | -0.0086 | 0.0358 | -0.024 | -0.0299 | -0.0448 | 0.032 | -0.0314 | -0.0152 | 0.112 | -0.014 | -0.0245 | 0.0298 |
| CN(C)CCCOc1ccc(-c2ccc3ncc4c(c3c2)n(C2CCOCC2)c(=O)n4C)cn1 [AZD0156] + C[C@@H]1COCCN1C2=NC(=NC(=C2)C3(CC3)[S@](=N)(=O)C)C4=C5C=CNC5=NC=C4 [AZD6738] (first compound max 1 µM, 7x7, partner max 10 µM) | -0.0067 | 0.0152 | 0.0645 | 0.0195 | 0.0047 | -0.0394 | -0.0432 | 0.0173 | 0.0275 | -0.0001 | -0.049 | -0.0076 | 0.0437 | 0.0317 | 0.0468 | 0.0521 | -0.0424 | 0.0001 | 0.0055 |
| C=CCn1c(=O)c2cnc(Nc3ccc(N4CCN(C)CC4)cc3)nc2n1-c1cccc(C(C)(C)O)n1 [AZD1775] + C[C@@H]1COCCN1C2=NC(=NC(=C2)C3(CC3)[S@](=N)(=O)C)C4=C5C=CNC5=NC=C4 [AZD6738] (first compound max 1 µM, partner max 10 µM) | -0.0022 | 0.0448 | 0.0482 | 0.0592 | -0.0198 | -0.0186 | 0.085 | 0.0329 | -0.0113 | -0.0111 | 0.0438 | -0.0234 | -0.0391 | -0.0399 | 0.0368 | 0.0428 | -0.0425 | 0.0303 | 0.0431 |
| C=CCn1c(=O)c2cnc(Nc3ccc(N4CCN(C)CC4)cc3)nc2n1-c1cccc(C(C)(C)O)n1 [AZD1775] + O=C(c1cc(Cc2n[nH]c(=O)c3ccccc23)ccc1F)N1CCN(C(=O)C2CC2)CC1 [Olaparib] (first compound max 1 µM, partner max 10 µM) | -0.0396 | -0.0681 | -0.0491 | -0.0549 | -0.0742 | -0.0271 | -0.0161 | -0.0145 | -0.0107 | -0.0271 | -0.0921 | -0.0222 | -0.0214 | -0.0084 | -0.0176 | -0.0259 | -0.0027 | -0.0721 | -0.0299 |
| CCN(CCO)CCCOc1ccc2c(Nc3cc(CC(=O)Nc4cccc(F)c4)[nH]n3)ncnc2c1 [AZD2811] + C=CCn1c(=O)c2cnc(Nc3ccc(N4CCN(C)CC4)cc3)nc2n1-c1cccc(C(C)(C)O)n1 [AZD1775] (first compound max 1 µM, partner max 1 µM) | -0.0547 | -0.0073 | 0.086 | 0.0075 | -0.134 | -0.0162 | -0.0064 | -0.001 | -0.014 | -0.0257 | -0.0475 | -0.0188 | -0.0127 | -0.0332 | 0.0106 | -0.011 | -0.0179 | -0.0321 | 0.0257 |
| CCN(CCO)CCCOc1ccc2c(Nc3cc(CC(=O)Nc4cccc(F)c4)[nH]n3)ncnc2c1 [AZD2811] + C[C@@H]1COCCN1C2=NC(=NC(=C2)C3(CC3)[S@](=N)(=O)C)C4=C5C=CNC5=NC=C4 [AZD6738] (first compound max 1 µM, 7x7, partner max 10 µM) | -0.0087 | -0.0356 | -0.0611 | -0.0182 | -0.0831 | 0.027 | -0.0339 | -0.0084 | -0.0384 | -0.0583 | -0.0319 | -0.0484 | -0.0188 | -0.0542 | -0.0291 | 0.0411 | -0.0594 | -0.122 | -0.0091 |
| CCN(CCO)CCCOc1ccc2c(Nc3cc(CC(=O)Nc4cccc(F)c4)[nH]n3)ncnc2c1 [AZD2811] + O=C(c1cc(Cc2n[nH]c(=O)c3ccccc23)ccc1F)N1CCN(C(=O)C2CC2)CC1 [Olaparib] (first compound max 1 µM, 7x7, partner max 10 µM) | -0.0195 | 0.0358 | 0.0063 | -0.0077 | -0.0534 | 0.0341 | -0.0208 | -0.0123 | 0.0173 | 0.0461 | -0.0303 | -0.0063 | 0.0383 | -0.0255 | 0.0463 | 0.0494 | -0.0188 | -0.0016 | 0.0524 |
